Literature values as cited in US8747385B2, “Methods and compositions to treat myocardial conditions” (Abbott Cardiovascular Systems Inc., priority 2003, dated 2014).

| Structure (SMILES) | O2 solubility at 37° C. [V %] |
| --- | --- |
| FC(F)(F)C(F)(F)C(F)(F)C(F)(F)CCC(F)(F)C(F)(F)C(F)(F)C(F)(F)F [F-44E, 1,2-bis(perfluorobutyl)ethane] | 50 |
| FC1(F)C(F)(F)C(F)(F)C2(F)C(F)(F)C(F)(F)C(F)(F)C(F)(F)C2(F)C1(F)F (centres unmarked) [FDC, Perfluorodecalin] | 45 |
